ChEMBL document CHEMBL4261621, “Synthesis of enamino-2-oxindoles via conjugate addition between α-azido ketones and 3-alkenyl oxindoles: Cytotoxicity evaluation and apoptosis inducing studies” (Bioorg Med Chem Lett, 2018)
pIC50: −log10 of the molar value. The source made the active and inactive calls. No cut-off for these calls is given here.

Legend:
NCI-H460 [1] = assay: Cell cycle arrest in human NCI-H460 cells assessed as accumulation at S phase at 10 uM after 24 hrs by propidium iodide staining based flow cytometry (reference value: 9.93%); type: functional
NCI-H460 [2] = assay: Cytotoxicity against human NCI-H460 cells at 30 uM after 48 hrs by MTT assay relative to control; type: functional
NCI-H460 [3] = assay: Induction of mitochondrial membrane potential loss in human NCI-H460 cells assessed as depolarized cell population at 1 uM after 72 hrs by JC1 staining based flow cytometry (reference value: 11.63%); type: functional
NCI-H460 [4] = assay: Cell cycle arrest in human NCI-H460 cells assessed as accumulation at G2/M phase at 10 uM after 24 hrs by propidium iodide staining based flow cytometry (reference value: 35.49%); type: functional
NCI-H460 [5] = assay: Induction of apoptosis in human NCI-H460 cells assessed as late apoptotic cells at 1 uM after 72 hrs by Annexin V-alexa fluor 488/propidium iodide staining based flow cytometry (reference value: 0.34%); type: functional
NCI-H460 [6] = assay: Induction of mitochondrial membrane potential loss in human NCI-H460 cells assessed as depolarized cell population at 5 uM after 72 hrs by JC1 staining based flow cytometry (reference value: 11.63%); type: functional
NCI-H460 [7] = assay: Induction of mitochondrial membrane potential loss in human NCI-H460 cells assessed as depolarized cell population at 10 uM after 72 hrs by JC1 staining based flow cytometry (reference value: 11.63%); type: functional
HCT-15 = assay: Cytotoxicity against human HCT15 cells after 72 hrs by MTT assay; type: functional, cell-based; conditions: HCT-15, 72 h
MDA-MB-231 [8] = assay: Cytotoxicity against human MDA-MB-231 cells at 30 uM after 48 hrs by MTT assay relative to control; type: functional
NCI-H460 [9] = assay: Cell cycle arrest in human NCI-H460 cells assessed as accumulation at S phase at 1 uM after 24 hrs by propidium iodide staining based flow cytometry (reference value: 9.93%); type: functional
NCI-H460 [10] = assay: Induction of apoptosis in human NCI-H460 cells assessed as increase in late apoptotic cells after 72 hrs by Annexin V-alexa fluor 488/propidium iodide staining based flow cytometry; type: functional, cell-based
NCI-H460 [11] = assay: Induction of apoptosis in human NCI-H460 cells assessed as early apoptotic cells at 10 uM after 72 hrs by Annexin V-alexa fluor 488/propidium iodide staining based flow cytometry (reference value: 0.77%); type: functional
HCT-116 [12] = assay: Cytotoxicity against human HCT116 cells at 30 uM after 48 hrs by MTT assay relative to control; type: functional
NCI-H460 [13] = assay: Induction of apoptosis in human NCI-H460 cells assessed as membrane blebbing at 0.25 to 10 uM after 72 hrs by acridine orange/ethidium bromide staining based fluorescence microscopic analysis; type: functional, cell-based
NCI-H460 [14] = assay: Cytotoxicity against human NCI-H460 cells after 72 hrs by MTT assay; type: functional, cell-based; conditions: NCI-H460, 72 h
NCI-H460 [15] = assay: Induction of reactive oxygen species generation in human NCI-H460 cells after 24 hrs by DCFDA staining based fluorescence microscopic analysis; type: functional, cell-based
NCI-H460 [16] = assay: Induction of apoptosis in human NCI-H460 cells assessed as reduction in cell number at 0.25 to 10 uM after 72 hrs by acridine orange/ethidium bromide staining based fluorescence microscopic analysis; type: functional
HCT-116 [17] = assay: Cytotoxicity against human HCT116 cells after 72 hrs by MTT assay; type: functional, cell-based; conditions: HCT-116, 72 h
NCI-H460 [18] = assay: Induction of apoptosis in human NCI-H460 cells assessed as viable cells at 1 uM after 72 hrs by Annexin V-alexa fluor 488/propidium iodide staining based flow cytometry (reference value: 98.55%); type: functional; conditions: NCI-H460, 72 h, read-out: Activity
NCI-H460 [19] = assay: Induction of apoptosis in human NCI-H460 cells assessed as early apoptotic cells at 2.5 uM after 72 hrs by Annexin V-alexa fluor 488/propidium iodide staining based flow cytometry (reference value: 0.77%); type: functional
NCI-H460 [20] = assay: Cell cycle arrest in human NCI-H460 cells assessed as accumulation at G0/G1 phase at 1 uM after 24 hrs by propidium iodide staining based flow cytometry (reference value: 49.6%); type: functional
HeLa = assay: Cytotoxicity against human HeLa cells at 30 uM after 48 hrs by MTT assay relative to control; type: functional
NCI-H460 [21] = assay: Cell cycle arrest in human NCI-H460 cells assessed as accumulation at sub-G1 phase at 5 uM after 24 hrs by propidium iodide staining based flow cytometry (reference value: 0.99%); type: functional
NCI-H460 [22] = assay: Induction of apoptosis in human NCI-H460 cells assessed as early apoptotic cells at 5 uM after 72 hrs by Annexin V-alexa fluor 488/propidium iodide staining based flow cytometry (reference value: 0.77%); type: functional
NCI-H460 [23] = assay: Cell cycle arrest in human NCI-H460 cells assessed as accumulation at S phase at 5 uM after 24 hrs by propidium iodide staining based flow cytometry (reference value: 9.93%); type: functional
NCI-H460 [24] = assay: Induction of apoptosis in human NCI-H460 cells assessed as late apoptotic cells at 10 uM after 72 hrs by Annexin V-alexa fluor 488/propidium iodide staining based flow cytometry (reference value: 0.34%); type: functional
NCI-H460 [25] = assay: Induction of morphological changes in human NCI-H460 cells assessed as cell shrinkage after 72 hrs by phase contrast microscopic analysis; type: functional, cell-based
NCI-H460 [26] = assay: Induction of apoptosis in human NCI-H460 cells assessed as appearance of horse-shoe shaped nuclei at 0.25 to 10 uM after 72 hrs by DAPI staining based fluorescence microscopic analysis; type: functional, cell-based
NCI-H460 [27] = assay: Cell cycle arrest in human NCI-H460 cells assessed as accumulation at G0/G1 phase at 5 uM after 24 hrs by propidium iodide staining based flow cytometry (reference value: 49.6%); type: functional
NCI-H460 [28] = assay: Induction of mitochondrial membrane potential loss in human NCI-H460 cells assessed as depolarized cell population at 2.5 uM after 72 hrs by JC1 staining based flow cytometry (reference value: 11.63%); type: functional
NCI-H460 [29] = assay: Induction of apoptosis in human NCI-H460 cells assessed as necrotic cells at 5 uM after 72 hrs by Annexin V-alexa fluor 488/propidium iodide staining based flow cytometry (reference value: 0.34%); type: functional
NCI-H460 [30] = assay: Induction of apoptosis in human NCI-H460 cells assessed as increase in early apoptotic cells after 72 hrs by Annexin V-alexa fluor 488/propidium iodide staining based flow cytometry; type: functional, cell-based
NCI-H460 [31] = assay: Induction of morphological changes in human NCI-H460 cells assessed as cell detachment after 72 hrs by phase contrast microscopic analysis; type: functional, cell-based
A549 = assay: Cytotoxicity against human A549 cells after 72 hrs by MTT assay; type: functional, cell-based; conditions: A549, 72 h
NCI-H460 [32] = assay: Induction of apoptosis in human NCI-H460 cells assessed as early apoptotic cells at 1 uM after 72 hrs by Annexin V-alexa fluor 488/propidium iodide staining based flow cytometry (reference value: 0.77%); type: functional
MDA-MB-231 [33] = assay: Cytotoxicity against human MDA-MB-231 cells after 72 hrs by MTT assay; type: functional, cell-based; conditions: MDA-MB-231, 72 h
NCI-H460 [34] = assay: Induction of apoptosis in human NCI-H460 cells assessed as necrotic cells at 10 uM after 72 hrs by Annexin V-alexa fluor 488/propidium iodide staining based flow cytometry (reference value: 0.34%); type: functional

## CCOC(=O)/C(=C(\N)C(=O)c1ccccc1)C1C(=O)N(C)c2ccc(F)cc21 (configuration not stated)
NCI-H460 [1]
  Activity: 3.42%
NCI-H460 [2]
  Activity: >50%
NCI-H460 [3]
  Activity: 42.95%
NCI-H460 [4]
  Activity: 67.37%
NCI-H460 [5]
  Activity: 3.15%
NCI-H460 [6]
  Activity: 83.8%
NCI-H460 [7]
  Activity: 90.49%
HCT-15
  pIC50: 5.53
MDA-MB-231 [8]
  Activity: >50%
NCI-H460 [9]
  Activity: 6.55%
NCI-H460 [10]
  Activity: Dose-dependent effect
NCI-H460 [11]
  Activity: 57.78%
HCT-116 [12]
  Activity: >50%
NCI-H460 [13]
  Activity: Active
NCI-H460 [14]
  pIC50: 5.85
NCI-H460 [15]
  Activity: Dose-dependent effect
NCI-H460 [16]
  Activity: Active
HCT-116 [17]
  pIC50: 5.29
NCI-H460 [18]
  viability at 1 µM: 87.9%
NCI-H460 [19]
  Activity: 19.4%
NCI-H460 [20]
  Activity: 9.77%
HeLa
  Activity: >50%
NCI-H460 [21]
  Activity: 11.94%
NCI-H460 [22]
  Activity: 35.42%
NCI-H460 [23]
  Activity: 3.59%
NCI-H460 [24]
  Activity: 1.78%
NCI-H460 [25]
  Activity: Dose-dependent effect
NCI-H460 [26]
  Activity: Active
NCI-H460 [27]
  Activity: 11.17%
NCI-H460 [28]
  Activity: 71.6%
NCI-H460 [29]
  Activity: 0.21%
NCI-H460 [30]
  Activity: Dose-dependent effect
NCI-H460 [31]
  Activity: Dose-dependent effect
A549
  pIC50: 5.45
NCI-H460 [32]
  Activity: 8.72%
MDA-MB-231 [33]
  pIC50: 5.20
NCI-H460 [34]
  Activity: 0.03%
